Measured values as given in patent US20130071328A1, “Propynoic Acid Carbamoyl Methyl-Amides and Pharmaceutical Compositions and Methods Based Thereon” (UNIVERSITY OF SOUTHERN CALIFORNIA, priority 2011, published 2013).
Entries after “also recorded” stand apart in the source; their conditions may differ.

How the values were obtained:
[1] = system: HT29 colon cancer cell line; experiment: MTT cytotoxicity assay, HT29; format: cell-based; settings: Homo sapiens, HT-29, 72 h exposure
Text: (§1) The human breast cancer cell line MDA-MB-435 and the colon cancer cell line HT29 were purchased from the American Type Cell Culture (Manassas, Va.). Colon cancer cell lines HCT116 p53^+/+ and HCT116 p53^−/− were kindly provided by Dr. Bert Vogelstein (Johns Hopkins Medical Institutions, Baltimore, Md.). The human ovarian carcinoma cell line (HEY), naturally resistant to cisplatin (CDDP), was kindly provided by Dr. Louis Dubeau (USC Norris Cancer Center). The bladder cancer cell lines were kindly provided by Dr. Richard Cote (USC Keck School of Medicine). Cells were maintained as monolayer cultures in the appropriate media: RPMI-1640 (HT29, HCT116 p53^+/+, HCT116 p53^−/−, and HEY cell lines) or DMEM (MDA-MB-435 and UMUC3 cell lines) supplemented with 10% fetal bovine serum (FBS) (HyClone, Road Logan, Utah) at 37° C. in a humidified atmosphere of 5% CO2. To remove the adherent cells from the flask for subculture and counting, cells were washed with PBS without calcium or magnesium, incubated with a small volume of 1×trypsin-EDTA solution (Sigma-Aldrich, St. Louis, Mo.) for 5 min, resuspended with fresh culture medium, and centrifuged at 1200 rpm for 5 min. All experiments were performed using cells in exponential growth phase. Cells were routinely checked for Mycoplasma contamination using PlasmaTest kit (InvivoGen, San Diego, Calif.).
(§2) Cytotoxicity was assessed by MTT assay as described previously. 43 In brief, cells were seeded in 96-well microtiter plates and allowed to attach overnight. Cells were subsequently treated with continuous exposure to corresponding drugs for 72 h. At the end of treatments, an MTT solution (at a final concentration of 0.5 mg/mL) was added to each well, and cells were incubated for 4 h at 37° C. After removal of the supernatant, DMSO was added, and the absorbance was read at 570 nm. All assays were done in triplicate. The IC50 was then determined for each drug from a plot of log(drug concentration) versus percentage of cells killed.

[2] = system: HCT116 p53^+/+ colon cancer cell line; experiment: MTT cytotoxicity assay, HCT116 p53+/+; format: cell-based; settings: Homo sapiens, HCT-116, 72 h exposure
Text: as §1, §2

[3] = system: HCT116 p53^−/− colon cancer cell line; experiment: MTT cytotoxicity assay, HCT116 p53-/-; format: cell-based; settings: Homo sapiens, HCT-116, 72 h exposure
Text: as §1, §2

[4] = system: HEY ovarian cancer cell line; experiment: Cytotoxicity assay, HEY; format: cell-based; settings: Homo sapiens; MTT, 72 h exposure (Table 2)
Text: as §1, §2

[5] = system: UMUC3 bladder cancer cell line; experiment: MTT cytotoxicity assay, UMUC3; format: cell-based; settings: Homo sapiens, 72 h exposure
Text: as §1, §2

[6] = system: 5637 bladder cancer cell line; experiment: MTT cytotoxicity assay, 5637; format: cell-based, human; settings: for IC50: Homo sapiens, 72 h exposure
Text: as §1, §2

[7] = system: doxorubicin-resistant NCI/ADR-RES ovarian cancer cell line; experiment: Cytotoxicity assay, NCI/ADR-RES; format: cell-based; settings: Homo sapiens, MTT, 72 h exposure (Table 2)
Description: as §2

MDA-MB-435 xenograft = experiment: MDA-MB-435 mouse xenograft model; format: in vivo
Description: To investigate the in vivo efficacy of these compounds, we selected compound 2 and evaluated its anticancer activity in a nude mouse xenograft model using MDA-MB-435 cells. Animals were treated with daily intraperitoneal (i.p.) injections of DMSO in sesame oil (vehicle control) or compound 2 at 10 mg/kg for 9 days, followed by 20 mg/kg for 5 days and concluding with 40 mg/kg for 12 days. After 26 days of dosing, the drug treatment was discontinued. Mice were monitored daily for an additional 17 days, and tumors were measured twice per week. FIG. 4A summarizes the tumor volume (mean±SEM) of the treatment groups throughout the observation time.
Sixteen virgin female athymic nude (nu/nu) mice (Simonsen Laboratory Inc., Gilroy, Calif.) were used for in vivo efficacy testing. […]
Human breast cancer MDA-MB-435 cells in logarithmic phase growth from in vitro cell culture were inoculated subcutaneously on the rear flank of the mice (1.5×10^6 cells/mouse) under aseptic conditions. Tumor growth was assessed twice weekly by measuring tumor diameters with a Vernier caliper (length×width). Tumor weight was calculated according to the formula: TW (mg)=tumor volume (mm^3)=d^2×D/2, where d and D are the shortest and longest diameters, respectively. […]
Eight mice were assigned to each group and the results were expressed as the mean±SEM. […]

MDA-MB-435 cells [8] = experiment: Apoptosis assay, annexin V/propidium iodide flow cytometry; format: cell-based, human; settings: for induction of apoptosis: 24 and 48 hours
Description: To quantify drug-induced apoptosis, annexin V/propidium iodide staining was performed and analyzed by flow cytometry. MDA-MB-435 cells were treated with 10 μM compound 1, 2, or 4 for 24 and 48 h. After treatment, both floating and adherent cells were combined and subjected to annexin V/propidium iodide staining using an annexin V-FITC apoptosis detection kit (Oncogene Research Products, San Diego, Calif.) according to manufacturer's recommendations. Untreated control cells (48 h) were maintained in parallel to drugtreated groups. Double staining was used to distinguish between viable, early apoptotic, and necrotic or late apoptotic cells. The resulting fluorescence (FITC-A channel for green fluorescence and PE-A channel for red fluorescence) was measured by flow cytometry using a BD LSRII flow cytometer (BD Biosciences, San Jose, Calif.).

MDA-MB-435 cells [9] = experiment: Mitochondrial superoxide production (MitoSOX Red); format: cell-based, human; settings: for mitochondrial superoxide production, flow cytometry: IC50 or 3×IC50, 24 hours
Description: After drug treatments, a solution of 5 μM MitoSOX Red mitochondrial superoxide indicator (Invitrogen, Carlsbad, Calif.) was added, and cells were incubated for 10 min at 37° C. Cells were then washed three times with Hank's balanced salt solution (HBSS) to remove excess MitoSOX. After washing, cells were either observed under the fluorescence microscope or collected by trypsinization, washed twice with HBSS, and measured for superoxide production using a BD LSRII flow cytometer (BD Biosciences, San Jose, Calif., USA). Data were analyzed with the BD FACSDiva software package (BD Biosciences, San Jose, Calif., USA).

[10] = system: MDA-MB-435 breast cancer cell line; experiment: MTT cytotoxicity assay, MDA-MB-435; format: cell-based, human
Text: as §1, §2

[11] = Pharmacokinetics study after i.p. administration; format: in vivo, mice; settings: mouse, ip
Description: To assess the efficacy, tolerability, and pharmacokinetics of these novel compounds following i.p. administration, the pharmacokinetic profile of compounds 4 and 9 was evaluated (Table 3). Mice were treated with compounds 4 and 9 via i.p. injection and serial blood sampling was determined at indicated times after administration. The plasma concentration was determined using a validated liquid chromatography mass spectrometry (LC-MS) method where the lowest level of quantification was 1 ng/mL. One hour following i.p. administration of compounds 4 and 9, their concentrations in the blood were 344 and 6.2 ng/mL, respectively. […] The half-lives of compounds 4 and 9 via i.p. administration were determined to be approximately 3.5 and 9.3 hours, respectively, when a non-compartmental pharmacokinetics analysis was used. The favorable pharmacokinetics profile of compounds 4 and 9 is consistent with the ADMET predictions described previously.
Preliminary pharmacokinetics of compounds 4 and 9 were performed using 18 mice, each time point consisting of two mice. Mice were stratified to various doses given as an i.p. injection of compounds 4 and 9 (24 mg/kg). At the specified time points following drug administration, blood was collected with heparinized syringes. The samples were allowed to settle in 500 μL eppendorf vials and then centrifuged at 1500 rpm for 10 min. The plasma was removed, transferred into new eppendorf tube, and frozen at −80° C. until analysis.

MDA-MB-435 cells [12] = experiment: Cell cycle analysis by propidium iodide flow cytometry; format: cell-based, human
Description: Cell cycle perturbations were analyzed by propidium iodide DNA staining. Exponentially growing MDA-MB-435 cells were treated with 5 μM compound 4 for 6, 12, and 24 h. At the end of treatment, cells were collected and washed with 1×PBS after a gentle centrifugation at 1500 rpm for 5 min. Cells were then thoroughly resuspended in 0.5 mL of PBS and fixed in 70% ethanol overnight at 4° C. Ethanol-fixed cells were centrifuged at 3000 rpm for 5 min and washed twice in PBS to remove residual ethanol. For cell cycle analysis, the pellets were resuspended in 1 mL of PBS containing 0.02 mg/mL of propidium iodide and 0.5 mg/mL of DNase-free RNase A and incubated at 37° C. for 30 min. Cell cycle profiles were obtained using a BD LSRII flow cytometer (BD Biosciences, San Jose, Calif.). Propidium iodide was excited using a 488 nm blue argon laser. Resulting fluorescence was measured using a PMT detector equipped with 550 nm long pass dichroic mirror and 575/26 bandpass filter. Data were analyzed with the ModFit LT software package (Verify Software House, Inc., Topsham, Me.).

panel of cancer cells = experiment: MTT cytotoxicity of compound 4 across tested cell lines (FIG. 2B); format: cell-based; settings: Homo sapiens, MTT assays
Description: as §2

SMILES | IC50 [1] [µM] | IC50 [2] [µM] | IC50 [3] [µM] | IC50 [4] [µM] | IC50 [5] [µM] | IC50 [6] [µM] | IC50 [7] [µM] | percentage of late apoptotic cells (MDA-MB-435 cells [8]; 10 μM, 48 hours) [%] | induction of apoptosis (MDA-MB-435 cells [8]) | mitochondrial superoxide production, flow cytometry (MDA-MB-435 cells [9]) | also measured
C#CC(=O)N(c1cccc(C(F)(F)F)c1)C(C(=O)NC1CCCC1)c1cccc(OC)c1 (stereo not shown) [Compound 2, N-[2-(Cyclopentylamino)-1-(3-methoxyphenyl)-2-oxoethyl]-N-[3-(trifluoromethyl)phenyl]Propynamide] | 7.2 ± 0.2 | > 10 | 8.8 ± 0.4 | 5.2 ± 3.4 | > 20 | 0.6 ± 0.4 | 0.2 ± 0.1 | 37 | induce apoptosis | induce significant amounts of superoxide | tumor burden (tumor volume) (MDA-MB-435 xenograft; i.p. daily 10 mg/kg 9 days, 20 mg/kg 5 days, 40 mg/kg 12 days): significantly reduced tumor burden; average body weight after treatment (MDA-MB-435 xenograft; mean±SD, after treatment, control 28±2 g): 29 ± 2 g; induction of early apoptosis (MDA-MB-435 cells [8]; 10 μM, 24 hours): failed to induce early apoptosis; increase in early apoptotic cells (MDA-MB-435 cells [8]; 10 μM, 48 h): 8%
C#CC(=O)N(c1ccc(-n2cnnn2)c(C)c1)C(C(=O)NC1CCCC1)c1ccccc1F (stereo not shown) [Compound 4, N-[2-(Cyclopentylamino)-1-(2-fluorophenyl)-2-oxoethyl]-N-[3-methyl-4-(1H-tetraazol-1-yl)phenyl]Propynamide] | 1.8 ± 1.7 | 6.3 ± 1.8 | 5.5 ± 0.7 | 1.5 ± 0.8 | 6.3 ± 1 | 0.7 ± 0.5 | 1 ± 0.3 | 62 | induce apoptosis | induce significant amounts of superoxide | cytotoxic potency in MDA-MB-435 cells [10]: one of the most active compounds; cytotoxic potency in 5637 cells [6]: remarkable potency; AUC ([11]; in vivo, 24 mg/kg): 520 ng·h/mL; Cmax ([11]; in vivo, 24 mg/kg): 344 ng/mL; Kel ([11]; in vivo, 24 mg/kg): 0.206 h⁻¹; Tmax ([11]; in vivo, 24 mg/kg): 1.0 h; half-life ([11]; in vivo, 24 mg/kg): ~3.5 h; t1/2 ([11]; in vivo, 24 mg/kg): 3.5 h; concentration at 1 h ([11]; plasma, mice, 24 mg/kg i.p., 1 hour, read-out: concentration in the blood one hour following i.p. administration): 344 ng/mL; cell cycle perturbation (MDA-MB-435 cells [12]; 5 μM, 6, 12 and 24 hours): induced both S- and G2/M-arrest; also recorded: block cell cycle progression at both S and G2/M phases; increase in number of cells retained in G2/M phase vs untreated control (MDA-MB-435 cells [12]; 5 μM, 24 hours): 7%; increase in number of cells retained in S phase vs untreated control (MDA-MB-435 cells [12]; 5 μM, 24 hours): 10%; percentage of late apoptotic cells (MDA-MB-435 cells [8]; 10 μM, 24 hours): 27%; percentage of early apoptotic cells (MDA-MB-435 cells [8]; 10 μM, 48 hours): 24%; IC50 (panel of cancer cells): 1 to 2.5 µM
C#CC(=O)N(c1ccccc1)C(C(=O)NC1CCCCC1)c1cccs1 (stereo not shown) [Compound 18, N[2-(Cyclohexylamino)-2-oxo-1-thien-2-ylethyl]-N-phenyl Propynamide] | > 10 | 14 | > 20 | > 10 | > 20 | 3.5 ± 1.4 | 1.3 ± 0.4 |  |  | induce significant amounts of superoxide | IC50 ([10]; Homo sapiens, MDA-MB-435, 72 h, 72 h exposure): > 10 µM; intensity of MitoSOX staining, fluorescence microscopy (MDA-MB-435 cells [9]; 24 hours): remarkably enhanced the intensity of MitoSOX staining
